System: Streptococcus agalactiae
Assay: Viability of bacteria under detergent treatment
Type: cell-based

## CCCCCCCCCCCCOS(=O)(=O)[O-].[Na+] [SDS, sodium dodecyl sulfate]
SDS concentration 0.05%
  killing of bacteria by detergent: does not kill
SDS concentration 0.1% or 0.2%
  killing of bacteria by detergent: largely killed
